Test system: murine macrophage cell line, RAW 264.7
Experiment: Nitric oxide (NO) release from LPS-induced RAW 264.7 cells (Griess Reagent System)
Format: cell-based
Procedure: 10^5 cells from a murine macrophage cell line, RAW 264.7, were seeded in 96-well plates in a medium containing 1% FBS, 1% Glutamine and 1% Pen/strep in DMEM. […] In addition, positive control cells were treated with 20 μM dexamethasone. Nitric oxide (NO) release was tested after incubation at 37° C., 5% CO2 using the Griess Reagent System. The method is based on the chemical diazotization reaction that was originally described by Griess in 1879, which uses sulfanilamide and N-1-napthylethylenediamine dihydrochloride (NED) under acidic (phosphoric acid) conditions. This system detects NO2^− in a variety of biological and experimental liquid matrices such as tissue culture medium that was tested in this study.

NCCc1ccccc1 [PEA, β-phenylethylamine]
NO release as % of LPS-only negative control (FIG. 1: 240 μg/ml Ginkgo biloba, 500 μg/ml PEA, tested separately, LPS 5 ng/ml, 22 hours): ~85%
NO release as % of LPS-only negative control (FIG. 2: 240 μg/ml Ginkgo biloba, 120 μg/ml PEA, tested separately, LPS 5 ng/ml, 22 hours): 95%
reduction in NO release (FIG. 3: 630 μg/ml PEA alone, C+G+P = 390 μg/ml caffeine + 40 μg/ml Ginkgo biloba + 630 μg/ml PEA): 20%
effect on NO release (FIG. 4: 630 μg/ml PEA alone, binary combination 390 μg/ml caffeine + 630 μg/ml PEA): significant reduction
NO release inhibition (FIG. 5: 40 μg/ml Ginkgo biloba, 630 μg/ml PEA, separately and as binary combination): a certain degree of NO release inhibition
effect on NO release compared with dexamethasone positive control (FIGS. 3-6: 390 μg/ml caffeine, 40 μg/ml Ginkgo biloba, 630 μg/ml PEA): considerably less than that seen in the positive control

Cn1c(=O)c2c(ncn2C)n(C)c1=O [caffeine]
effect on NO release (FIG. 1: 40 μg/ml caffeine tested separately, LPS 5 ng/ml, 22 hours): essentially without effect
effect on NO release (FIG. 2: 40 μg/ml caffeine tested separately, LPS 5 ng/ml, 22 hours): essentially without effect
effect on NO release (FIG. 3: 390 μg/ml caffeine, 40 μg/ml Ginkgo biloba, tested separately): slight reduction

From patent US11266701B2, “Synergistic combinations of caffeine, ginkgo biloba and beta-phenylethylamine” (TRINUTRA LTD., priority 2016, dated 2022)
